Assay results as given in patent publication US8999967B2, “Tricyclic fused ring inhibitors of hepatitis C” (Presidio Pharmaceuticals, Inc., priority 2010, dated 2015).

Test system: HCV 1b_Huh-Luc/Neo-ET cell line (genotype 1b replicon in Huh 7 cells)
Assay: HCV replicon assay (luciferase readout)
Type: cell-based
Conditions: Hepatitis C virus, HCV 1b replicon in Huh 7 cells, 72 h incubation, EC50 range class, read-out: Inhibition of HCV genotype 1b
Protocol: Biological activity of the compounds of the invention was determined using an HCV replicon assay. The HCV 1b_Huh-Luc/Neo-ET cell line persistently expressing a bicistronic genotype 1b replicon in Huh 7 cells was obtained from ReBLikon GMBH. This cell line was used to test compound inhibition using luciferase enzyme activity readout as a measurement of compound inhibition of replicon levels.
On Day 1 (the day after plating cells), each compound is added in triplicate to the cells. Plates are incubated for 72 h prior to determining luciferase levels. Enzyme activity was measured using a Bright-Glo Kit (cat. number E2620) manufactured by Promega Corporation. The following equation was used to generate a percent control value for each compound. % Control=(Compound Luciferase Level/Control Luciferase Level)*100
The EC50 value was determined using GraphPad Prism and the following equation: Y=Bottom asymptote+(Top asymptote-Bottom asymptote)/(1+10^((Log EC50−X)*HillSlope))
EC50 values of compounds are determined several times in the replicon assay to generate average EC50 values. […]

Row | Structure (SMILES) | EC50 [nM]
1 | [2H]C([2H])([2H])C([2H])(C([2H])([2H])[2H])[C@]([2H])(NC(=O)OC)C(=O)N1CCC[C@H]1c1ncc(-c2ccc3c(c2)C(C)(C)c2ccc(-c4ccc5nc([C@@H]6CCCN6C(=O)[C@@]([2H])(NC(=O)OC)C([2H])(C([2H])([2H])[2H])C([2H])([2H])[2H])[nH]c5c4)cc2O3)[nH]1 [Compound 147] | < 1
2 | C=CC[C@H](NC(=O)OC)C(=O)N1CCC[C@H]1c1ncc(-c2ccc3c(c2)C(C)(C)c2ccc(-c4ccc5nc([C@@H]6CCCN6C(=O)[C@H](CC=C)NC(=O)OC)[nH]c5c4)cc2O3)[nH]1 [Compound 148] | < 1
3 | COC(=O)N[C@H](C(=O)N1CCC[C@H]1c1ncc(-c2ccc3c(c2)C(C)(C)c2ccc(-c4ccc5nc([C@@H]6CCCN6C(=O)[C@@H](NC(=O)OC)C6CCOCC6)[nH]c5c4)cc2O3)[nH]1)C1CCOCC1 [Compound 149] | < 1
4 | C#CC[C@H](NC(=O)OC)C(=O)N1CCC[C@H]1c1ncc(-c2ccc3c(c2)C(C)(C)c2ccc(-c4ccc5nc([C@@H]6CCCN6C(=O)[C@H](CC#C)NC(=O)OC)[nH]c5c4)cc2O3)[nH]1 [Compound 150] | < 1
5 | COC(=O)N[C@H](C(=O)N1CCC[C@H]1c1ncc(-c2ccc3c(c2)Oc2nnc(-c4cnc([C@@H]5CCCN5C(=O)[C@@H](NC(=O)OC)C(C)C)[nH]4)cc2O3)[nH]1)C(C)C [Compound 151] | 1 to 9.9
6 | COC(=O)N[C@H](C(=O)N1CCC[C@H]1c1ncc(-c2ccc3nc4cc(-c5cnc([C@@H]6CCCN6C(=O)[C@@H](NC(=O)OC)C(C)C)[nH]5)ccc4nc3c2)[nH]1)C(C)C [Example 1] | < 1
7 | COC(=O)N[C@@H](C(=O)N1CCC[C@H]1c1ncc(-c2ccc3nc4cc(-c5cnc([C@@H]6CCCN6C(=O)[C@H](NC(=O)OC)c6ccccc6)[nH]5)ccc4nc3c2)[nH]1)c1ccccc1 [Example 2] | < 1
8 | COC(=O)N[C@H](C(=O)N1CCC[C@H]1c1ncc(-c2ccc3c(c2)Oc2ccc(-c4cnc([C@@H]5CCCN5C(=O)[C@@H](NC(=O)OC)C(C)C)[nH]4)cc2O3)[nH]1)C(C)C [Example 3] | < 1
9 | COC(=O)N[C@H](C(=O)N1CCC[C@H]1c1ncc(-c2ccc3c(c2)Cc2cc(-c4cnc([C@@H]5CCCN5C(=O)[C@@H](NC(=O)OC)C(C)C)[nH]4)ccc2O3)[nH]1)C(C)C [Example 4] | 10 to 999
10 | COC(=O)N[C@@H](C(=O)N1CCC[C@H]1c1ncc(-c2ccc3c(c2)Cc2cc(-c4cnc([C@@H]5CCCN5C(=O)[C@H](NC(=O)OC)c5ccccc5)[nH]4)ccc2O3)[nH]1)c1ccccc1 [Example 5] | < 1
11 | COC(=O)N[C@H](C(=O)N1CCC[C@H]1c1ncc(-c2ccc3c(c2)Cc2ccc(-c4cnc([C@@H]5CCCN5C(=O)[C@@H](NC(=O)OC)C(C)C)[nH]4)cc2O3)[nH]1)C(C)C [Example 6] | < 1
12 | COC(=O)N[C@H](C(=O)N1CCC[C@H]1c1ncc(-c2ccc3c(c2)CCc2cc(-c4cnc([C@@H]5CCCN5C(=O)[C@@H](NC(=O)OC)C(C)C)[nH]4)ccc2O3)[nH]1)C(C)C [Example 7] | < 1
13 | COC(=O)N[C@H](C(=O)N1CCC[C@H]1c1ncc(-c2ccc3c(=O)c4cc(-c5cnc([C@@H]6CCCN6C(=O)[C@@H](NC(=O)OC)C(C)C)[nH]5)ccc4oc3c2)[nH]1)C(C)C [Example 8] | < 1
14 | CC(C)(C)OC(=O)N1CCC[C@H]1c1ncc(-c2ccc3c(=O)c4cc(-c5cnc([C@@H]6CCCN6C(=O)OC(C)(C)C)[nH]5)ccc4oc3c2)[nH]1 [Example 9] | 10 to 999
15 | COC(=O)N[C@H](C(=O)N1CCC[C@H]1c1ncc(-c2ccc3c(c2)Oc2ccc(-c4cnc([C@@H]5CCCN5C(=O)[C@@H](NC(=O)OC)C(C)C)[nH]4)cc2C3(C)C)[nH]1)C(C)C [Example 10] | < 1
16 | COC(=O)N[C@H](C(=O)N1CCC[C@H]1c1ncc(-c2ccc3c(c2)c(=O)c2ccc(-c4cnc([C@@H]5CCCN5C(=O)[C@@H](NC(=O)OC)C(C)C)[nH]4)cc2n3C)[nH]1)C(C)C [Example 11] | < 1
17 | COC(=O)N[C@H](C(=O)N1CCC[C@H]1c1ncc(-c2ccc3c(c2)CCc2ccc(-c4cnc([C@@H]5CCCN5C(=O)[C@@H](NC(=O)OC)C(C)C)[nH]4)cc2O3)[nH]1)C(C)C [Example 12] | < 1
